From patent publication US9908890B2, “Selective inhibitors of constitutive androstane receptor” (ST. JUDE CHILDREN'S RESEARCH HOSPITAL, priority 2014, dated 2018)

System: CAR binding to CYP2B6 and CYP3A4 promoter response elements
Test: Chromatin immunoprecipitation (CAR / RNA polymerase II occupancy at promoters)
Assay type: cell-based, human
Protocol: FIG. 8B and FIG. 8C show the fold enrichment of CAR at CYP2B6-dNR3 and CYP2B6-PBREM sites, respectively, in the promoter region following the indicated treatment in human primary hepatocytes. […] Protein complexes were cross-linked and chromatin was immunoprecipitated by using anti-CAR antibody or control IgG. CAR occupancy at two separate CYP2B6 promoter regions (dNR3 and PBREM) was determined by performing quantitative RT-PCR assays. Fold-enrichment normalized to IgG control was plotted. Data represent the mean±SD of 3 experiments. *, p<0.01 comparing CITCO treatment to DMSO treatment.
FIG. 9A, FIG. 9B, and FIG. 9C show the fold enrichment of CAR at CYP2B6-dNR3, CYP3A4-XREM, and CYP2B6-dNR3 sites, respectively, in the promoter region following the indicated treatment in human primary hepatocytes or HepG2-hCAR1 cells, as indicated in the figures. Briefly, in FIG. 9A and FIG. […] 9C HepG2-hCAR1 stable cells were treated for […] with DMSO, 1 μM CITCO, 5 μM CINPA1, or 1 μM CITCO+5 μM CINPA1. Protein complexes were cross-linked and chromatin was immunoprecipitated by using anti-CAR antibody, anti-RNA polymerase II (RPol) antibody, or control IgG. CAR or RPol occupancy at the CYP2B6-dNR3 region and CYP3A4-XREM region was determined by performing quantitative RT-PCR assays. Fold-enrichment was normalized to IgG control. Data represent the mean±SD of 3 experiments. *, p<0.001 and #, p<0.01 comparing CITCO to DMSO samples. **, p<0.001 and ##, p<0.01 comparing CITCO+CINPA1 to CITCO samples.
ChIP was performed as described previously (Cherian, M. T., et al. (2012) J. Biol. Chem. 287, 23368-23380). Briefly, human hepatocytes in 6-well plates were maintained for 3-4 days in Williams E medium containing Primary Hepatocyte Maintenance Supplement (Life Technologies), with daily media changes. Nine wells were used for each treatment group. […] The HepG2-hCAR1 stable cells in FIG. 9 were treated with DMSO, 1 μM CITCO, 5 μM CINPA1, or 1 μM CITCO+5 μM CINPA1 for […]. In FIG. 9, the hepatocytes from donor 7 were treated with DMSO, 0.1 μM CITCO, 1 μM CINPA1, or 0.1 μM CITCO+1 μM CINPA1 for 45 min. Proteins were cross-linked with 1% formaldehyde for 10 min. Cell extracts were digested for 10 min with 50 units of micrococcal nuclease (New England Biolabs) at 37° C. and further sonicated to yield sheared DNA fragments having an average length of 200-1000 base pairs. The sonicated samples were pelleted by centrifugation, and the supernatant was diluted 3- to 5-fold with ChIP dilution buffer (0.01% SDS, 1.1% Triton X-100, 1.2 mM EDTA, 16.7 mM Tris-HCl, pH 8.1, 167 mM NaCl, and protease inhibitor cocktail). […] Quantitative RT-PCR assays were performed to determine the change in CAR occupancy at various sites of CAR binding. […]

[1] = human hepatocytes, 0.1 μM CITCO + 1 μM CINPA1, 45 min

CCOC(=O)Nc1ccc2c(c1)N(C(=O)CN(CC)CC)c1ccccc1CC2 [CINPA1]
CITCO-mediated recruitment of CAR and RNA polymerase II to XREM (dNR3) of the CYP2B6 promoter [1]: effectively reduced
CITCO-mediated recruitment of CAR and RNA polymerase II to XREM of the CYP3A4 promoter [1]: also reduced
CAR recruitment to XREM (dNR3) of the CYP2B6 gene (human primary hepatocytes, 3 donors, overnight, 1 μM CITCO or 5 μM CINPA1): prevents CAR recruitment
